{"source": "patent US6509348B1", "about": "“Combination of an ADP-receptor blocking antiplatelet drug and a thromboxane A2 receptor antagonist and a method for inhibiting thrombus formation employing such combination” (Bristol-Myers Squibb Company, priority 1998, dated 2003)", "key": {"[1]": {"tested_on": "carotid artery thrombosis", "settings": "clopidogrel 10 mg/kg"}, "whole blood coagulation": {"tested_on": "whole blood coagulation", "settings": "clopidogrel orally once daily for 3 days", "method": "(§1) Ex Vivo Platelet Function and Coagulation Testing. Male Sprague Dawley rats (350-450 g) were anesthetized with sodium pentobarbital (50 mg/kg i.p.) The vena cava was isolated by a midline abdominal incision and 5 to 8 ml of blood was withdrawn into a 1/10th volume of 3.8% Na citrate. A portion of each blood sample was centrifuged for 3 sec in a Microcentrifuge E (Beckman, Palo Alto, Calif., USA) to prepare platelet rich plasma (PRP) and for 3 min to prepare platelet poor plasma (PPP). The PRP was adjusted to a count of ˜450×10^3 platelets per […] by adding PPP.\n(§2) Drug treatments. There were 3 separate studies. In the first study rats were dosed once daily for 3 days with an oral gavage of either saline (n=6) or clopidogrel 3 (n=5), 10 (n=5), 20 (n=4) mg/kg). One hour after the last dose, rats were anethetized for the thrombosis protocol or blood was obtained for ex vivo testing of platelet function and whole blood coagulation. In the second study a continuous i.v. infusion of either saline or ifetroban (150 μg/kg/min) was administered starting 15 min before FeCl2-induced injury of the vena cava. In the third study, rats were treated with saline or clopidogrel (2 mg/kg per day for 3 days) and administered either saline or ifetroban (150 μg/kg/min) starting 15 min before FeCl2 application."}, "[2]": {"tested_on": "ADP-induced platelet aggregation", "assay": "animal or person", "method": "as §1\nPlatelet aggregation responses of PRP to ADP (1,3 and 10 μM; Chrono-Log Corp., Havertown, Pa., USA) were determined using the photometric technique described for a model 540 aggregometer (Chrono-Log Corp.).\nas §2"}, "[3]": {"tested_on": "vessel injury-induced venous thrombosis", "assay": "FeCl2 vessel injury-induced vena cava thrombosis in rats", "format": "in vivo, rat", "method": "Thrombosis Procedure. Male Sprague Dawley rats (350-450 g) were anesthetized with sodium pentobarbital (50 mg/kg i.p.). A jugular vein was cannulated for drug infusion or anesthetic supplementation, and the trachea was intubated to ensure airway patency. The vena cava was isolated by a midline abdominal incision and cleared of connective tissue. A fiberoptic probe (model P-433-10, 0.8 mm tip diameter) was placed on the dorsal surface of the vena cava distal to the renal veins and attached to a laser doppler blood perfusion monitor (model BPM 430-2, Vasamedics, St. Paul, Minn.). When baseline flow had stabilized, a 2 mm×5 mm strip of filter paper was saturated in 15% FeCl2 and placed on the vena cava downstream from the flow probe for 1 min. The vena cava was dissected free 60 min after filter paper application and opened lengthwise. The thrombus was removed to determine wet and dry thrombus weights on a Sartorius R-160P balance (Brinkmann Instruments Inc., Westbury, N.Y.). Blood flow was monitored on an R-611 physiological recorder (Sensor Medics, Anaheim, Calif.). Total blood flow was calculated by planimetry and normalized as percent of baseline flow (0 min=100%) over 60 min.\nas §2"}, "[4]": {"tested_on": "stasis-induced vena cava thrombosis", "assay": "Stasis-induced (uncomplicated) vena cava thrombosis", "format": "in vivo, rat"}, "[5]": {"tested_on": "vessel injury-induced venous thrombosis", "settings": "cited from earlier work; for activity in vessel injury-induced venous thrombosis model: aspirin, previous experiments"}, "[6]": {"tested_on": "stasis-induced vena cava thrombosis", "settings": "cited from earlier work"}, "[7]": {"molecular_target": "T1, rat platelet thromboxane A2 receptors (Rattus norvegicus, UniProt P34978)", "T1 construct": "rat platelet thromboxane A2 receptors; host or cells: rat platelets (endogenous)", "T1 sequence (P34978 1-341)": "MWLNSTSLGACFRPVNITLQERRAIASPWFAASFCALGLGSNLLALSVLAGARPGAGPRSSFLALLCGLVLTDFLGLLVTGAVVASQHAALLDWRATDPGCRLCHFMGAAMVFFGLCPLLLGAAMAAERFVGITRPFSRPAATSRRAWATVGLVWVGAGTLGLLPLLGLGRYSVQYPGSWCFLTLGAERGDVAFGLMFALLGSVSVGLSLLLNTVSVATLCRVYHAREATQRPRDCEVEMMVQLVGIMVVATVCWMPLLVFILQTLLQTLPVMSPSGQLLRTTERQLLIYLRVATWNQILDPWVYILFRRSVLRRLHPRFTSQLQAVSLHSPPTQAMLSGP", "settings": "dose used (150 μg/kg/min); Schumacher et al. 1993; cited from earlier work"}}, "note": "Entries after “also recorded” stand apart in the source; their conditions may differ. Where two headings read alike, the source gives them in different places.", "data": [{"smiles": "COC(=O)[C@H](c1ccccc1Cl)N1CCc2sccc2C1", "note": "[clopidogrel, methyl (4)-(S)-α-(o-chlorophenyl)-6,7-dihydrothieno[3,2-c]pyridine-5-acetate]", "values": [{"measurement": "antithrombotic activity", "setting": "[1]", "value": "good activity"}, {"measurement": "ex vivo whole blood coagulation tests", "setting": "whole blood coagulation", "value": "unaffected"}, {"measurement": "inhibition at 20 mg/kg", "setting": "[2]; Rattus norvegicus, Platelet, 72 h, read-out: inhibition of ADP-induced aggregation", "value": 86, "unit": "%"}, {"measurement": "inhibition at 10 mg/kg", "setting": "[2]; Rattus norvegicus, Platelet, 72 h, read-out: inhibition of ex vivo platelet aggregation", "value": 50, "unit": "%"}, {"measurement": "platelet shape change response to ADP", "setting": "[2]; clopidogrel 20 mg/kg daily for 3 days", "value": "unaffected"}, {"measurement": "effect on thrombus formation", "setting": "[3]; clopidogrel 2 mg/kg per day for 3 days", "value": "not sufficient to inhibit thrombus formation; also recorded: no effect"}, {"measurement": "decrease in thrombus weight", "setting": "[3]; clopidogrel 3 mg/kg orally once daily for 3 days", "value": 46, "unit": "%"}, {"measurement": "antithrombotic activity", "setting": "[3]; clopidogrel 10 mg/kg", "value": "good activity"}, {"measurement": "decrease in thrombus weight", "setting": "[3]; clopidogrel 10 mg/kg orally once daily for 3 days", "value": 72, "unit": "%"}, {"measurement": "decrease in thrombus weight", "setting": "[3]; clopidogrel 20 mg/kg orally once daily for 3 days", "value": 84, "unit": "%"}, {"measurement": "antithrombotic activity", "setting": "[4]; clopidogrel 10 mg/kg", "value": "good activity"}, {"measurement": "antithrombotic efficacy compared across the thrombosis models", "setting": "[4]; dose-dependent comparison of three rat models", "value": "least effective"}]}, {"smiles": "CC(=O)Oc1ccccc1C(=O)O", "note": "[aspirin]", "values": [{"measurement": "activity in vessel injury-induced venous thrombosis model", "setting": "[5]", "value": "failure; also recorded: failed to inhibit thrombosis"}, {"measurement": "activity in vessel injury-induced venous thrombosis model", "setting": "[5]; listed as Aspirin", "value": "inactive"}, {"measurement": "activity in uncomplicated venous thrombosis model", "setting": "[6]; aspirin", "value": "inactive"}]}, {"smiles": "CCCCCNC(=O)c1coc(C2C3CCC(O3)C2Cc2ccccc2CCC(=O)O)n1", "note": "(stereo not drawn) [ifetroban, [1S-(1α,2α,3α,4α)]-2-[[3-[4-[(pentylamino)carbonyl]-2-oxazolyl]-7-oxabicyclo[2.2.1]hept-2-yl]methyl]benzenepropanoic acid]", "values": [{"measurement": "block of rat platelet thromboxane A2 receptors", "setting": "[7]", "value": "≥ 99", "unit": "%"}, {"measurement": "effect on thrombus formation", "setting": "[3]; ifetroban alone, 150 μg/kg/min i.v. infusion from 15 min before FeCl2", "value": "inactive; also recorded: no significant effect; also recorded: failure; also recorded: not effective"}, {"measurement": "effect on thrombus formation", "setting": "[3]; ifetroban alone, 150 μg/kg/min i.v. infusion from 15 min before FeCl2, listed as Ifetroban", "value": "failed to inhibit thrombosis"}, {"measurement": "efficacy in uncomplicated venous thrombosis model", "setting": "[4]; ifetroban alone", "value": "effective; also recorded: intermediate efficacy"}]}, {"smiles": "CC(=O)CC(c1ccccc1)c1c(O)c2ccccc2oc1=O", "note": "(stereo not drawn) [warfarin]", "values": [{"measurement": "INR", "setting": "[5]; at higher dose needed for comparable inhibition of vessel injury-induced venous thrombosis", "value": 9.5}, {"measurement": "PT ratio (INR)", "setting": "[6]; at dose giving ≧75% inhibition of stasis-induced thrombosis", "value": 2.2}]}]}
